Converted amounts (≈) assume the structure as drawn. Where a SMILES comes first, the peptide text is derived from it. [ ]: non-standard residue; d: D form. dNMeF = CN[C@H](Cc1ccccc1)C(=O)O; Pip = O=C(O)[C@@H]1CCCCN1; 2Abz = Nc1ccccc1C(=O)O; Abu = CC[C@H](N)C(=O)O
What was measured:
[1] = cited from earlier work
Description: (§1) Cyclic pentapeptides, a subclass of cyclic peptides, are usually constructed by five amino acid residues. To date, about 60 cyclic pentapeptides have been characterized. Among them, avellanins A–C were exclusively found in Hamigera avellanea, Hamigera ingelheimensis, and Aspergillus petrakii, respectively. […] During our continuing efforts to identify new bioactive metabolites from mangrove-derived fungi [[20],[21],[ ...

quorum-sensing = details: cited from earlier work
Description: as §1

[2] = system: Vibrio harveyi (ATCC 14126); type: cell-based; details: V. harveyi ATCC 14126, microplate assay; chloromycetin positive control
Method: Antibacterial activity was determined against nine pathogenic bacteria, including six Gram-positive bacteria—Methicillin-resistant Staphylococcus aureus (ATCC 43300), […], Staphylococcus albus (ATCC 8799), Staphylococcus aureus (ATCC 6538), Bacillus subtilis (ATCC 21332), and […] —and three Gram-negative bacteria—Vibrio parahaemolyticus (ATCC 17802), V. alginolyticus (ATCC 17749), and V. harveyi (ATCC 14126)—by the microplate assay method. Chloromycetin was used as the positive control.

[3] = system: newly hatched larvae of Culex quinquefasciatus; assay: Insecticidal activity against newly hatched Culex quinquefasciatus larvae; type: in vivo; details: 25 ± 1 °C, 80% relative humidity, dead larvae recorded on 2nd, 4th, 6th and 8th days, two sets of replicates, azadirachtin positive control
Method: The insecticidal activity against Culex quinquefasciatus larvae was evaluated according to methods reported in the literature. Newly hatched larvae were housed at 25 ± 1 °C and 80% relative humidity. Two sets of replicates were set up with dimethyl sulfoxide as a negative control, azadirachtin as a positive control, and artificial feed as a blank control. The number of dead larvae was recorded on 2nd, 4th, 6th, and 8th days after treatment.

Compound: L-Pro-Ant-L-Ile-D-Ala-N-Me-D-Phe (head to tail) [compound 5, avellanin A, known cyclic pentapeptide isolated from the fungus]
- effect on blood pressure [1]: elevates blood pressure

Compound: avellanin B [compound 6]
- effect on activity of antineoplastic drugs [1]: improves the activity of antineoplastic drugs

Compound: avellanin C
- quorum-sensing inhibitory activity (quorum-sensing): exhibits quorum-sensing inhibitory activity

Compound: CC[C@@H]1NC(=O)[C@@H](C)NC(=O)[C@@H](Cc2ccccc2)N(C)C(=O)[C@@H]2CCCN2C(=O)c2ccccc2NC1=O [compound 4, avellanin G] (cyclo(P[dNMeF][dA][Abu][2Abz]))
- MIC [2]: 5.85 µM (≈ 3.12 µg/mL)

Compound: CC[C@H](C)[C@@H]1NC(=O)[C@@H](C)NC(=O)[C@@H](Cc2ccccc2)N(C)C(=O)[C@@H]2CCCCN2C(=O)c2ccccc2NC1=O [compound 2, avellanin E] (cyclo([Pip][dNMeF][dA]I[2Abz]))
- LC50, insecticidal activity [3]: 86.6 µM

— publication PMC11204760, “New Cyclic Pentapeptides from the Mangrove-Derived Aspergillus fumigatus GXIMD 03099” (Marine Drugs, 2024)
